Reference: patent US7045339B2, “Electron donors for chlorinated solvent source area bioremediation” (SRP Technologies, Inc., priority 2002, dated 2006)

Legend:
Assay type in all cases: physicochemical
[1] = Surface tension of electron donor solutions (pendant drop method); details: FIG. 5; for Change in surface tension: 0% ethyl lactate
Text: Based on the field results presented in Example 1, laboratory studies were preformed to confirm that the enhanced bioavailability of TCE observed in the field was due to co-solvent or surfactant behavior resulting from the use of high concentrations of sodium lactate. Two fundamental properties used to screen the co-solvent or surfactant properties of a solution are surface tension and interfacial tension. Surface tension measures the force per unit length along the interface between a liquid and air due to its tension. When a co-solvent or surfactant is present in an aqueous liquid at increasing concentrations, the surface tension of that liquid decreases. Interfacial tension is similar to surface tension except that it measures the force per unit length along the interface between two liquid phases arising from the surface free energy. The higher the interfacial tension between two liquids, the less likely one is to dissolve into the other, and the more difficult it is for one to be transported within the other. […]
The laboratory study performed to confirm the co-solvent properties of the high concentration electron donor solution measured the surface tension of electron donor solutions at various concentrations. Next, interfacial tensions between the same electron donor solutions and nonaqueous phase TCE were measured. […] Surface and interfacial tension measurements were made using the pendant drop method (M. J. Rosen, ed., Structure/Performance Relationships in Surfactants, American Chemical Society, Washington D.C. 329 (1984); R. D. Bagnall & P. A. Arundel, The Profile Area of Pendant Drops, 82 J. Phys. Chem. 898 (1978)) coupled with real-time video imaging (M. D. Herd et al., Interfacial Tensions of Microbial Surfactants Determined by Real-Time Video Imaging of Pendant Drops, Proceedings paper number SPE/DOE 24206 513–519, SPE/DOE Eighth Symposium on Enhanced Oil Recovery, Tulsa, Okla. (1992)).

[2] = Interfacial tension between electron donor solutions and nonaqueous phase TCE (pendant drop method)
Text: Based on the field results presented in Example 1, laboratory studies were preformed to confirm that the enhanced bioavailability of TCE observed in the field was due to co-solvent or surfactant behavior resulting from the use of high concentrations of sodium lactate. Two fundamental properties used to screen the co-solvent or surfactant properties of a solution are surface tension and interfacial tension. Surface tension measures the force per unit length along the interface between a liquid and air due to its tension. When a co-solvent or surfactant is present in an aqueous liquid at increasing concentrations, the surface tension of that liquid decreases. Interfacial tension is similar to surface tension except that it measures the force per unit length along the interface between two liquid phases arising from the surface free energy. The higher the interfacial tension between two liquids, the less likely one is to dissolve into the other, and the more difficult it is for one to be transported within the other. Thus, perhaps the most significant property of co-solvents and surfactants in the context of chlorinated solvent remediation is that they decrease the interfacial tension between the aqueous phase (groundwater) and the organic nonaqueous phase so that the solubility (or mobility for order-of-magnitude decreases) of the nonaqueous phase is enhanced.
The laboratory study performed to confirm the co-solvent properties of the high concentration electron donor solution measured the surface tension of electron donor solutions at various concentrations. Next, interfacial tensions between the same electron donor solutions and nonaqueous phase TCE were measured. Two types of electron donor solutions were used. The first was different concentrations of sodium lactate, the electron donor used in Example 1. The second was various mixtures of sodium lactate and ethyl lactate. Ethyl lactate was chosen because it is a lactate-based compound that is used in some industries as a solvent. Thus it was believed ethyl lactate might further enhance the co-solvent behavior observed, while still acting as a suitable electron donor for bioremediation. It is believed that mixtures of sodium lactate and ethyl lactate have never before been used for bioremediation. Surface and interfacial tension measurements were made using the pendant drop method (M. J. Rosen, ed., Structure/Performance Relationships in Surfactants, American Chemical Society, Washington D.C. 329 (1984); R. D. Bagnall & P. A. Arundel, The Profile Area of Pendant Drops, 82 J. Phys. Chem. 898 (1978)) coupled with real-time video imaging (M. D. Herd et al., Interfacial Tensions of Microbial Surfactants Determined by Real-Time Video Imaging of Pendant Drops, Proceedings paper number SPE/DOE 24206 513–519, SPE/DOE Eighth Symposium on Enhanced Oil Recovery, Tulsa, Okla. (1992)).
The data points in the figure represent the mean interfacial tension measurement based on at least eight independent measurements. The error bars show one standard deviation. It can be seen that as electron donor concentration increases, interfacial tension generally decreases. While sodium lactate had dramatic effects in the field (see FIG. 7), it appears that the other electron donor solutions tested might increase bioavailability to an even greater extent. […]

[3] = Emulsion formation of electron donor in water; details: very little mixing, unpublished data
Text: Oleyl lactyllic acid may be just such an electron donor (confidential proprietary information). It is essentially a combination of vegetable oil and lactic acid that was developed in the food processing industry a few decades ago as an emulsifier. […] Although it has an appearance and viscosity of vegetable oil, its nature as an emulsifier causes it to react very differently with water than pure vegetable oil. When vegetable oil is used in the field as electron donor, an emulsifier such as lecithin must be added to inject it into groundwater (25). The mixture is then mixed to achieve an emulsion of a few tenths of a percent to a few percent oil. The droplet size of the emulsion may be a critical factor in its transportability (26). In order to achieve small, easily transported droplets in the emulsion, intensive mixing is required. […] This observation is consistent with its intended use in food processing. […] While this may be the most promising example on the surface, other potential electron donors will be evaluated under this proposal.

Q: Which “Change in surface tension” value ([1]; sodium lactate 0.01 to 7%) does the source give for `CC(O)C(=O)[O-].[Na+]` (stereo not drawn) [sodium lactate] here?
A: almost no change

Q: And the “Change in surface tension” value ([1]; sodium lactate 30 and 60%)?
A: dramatic decrease

Q: And the “Decrease of interfacial tension between nonaqueous TCE and the electron donor solution” value ([2]; high concentrations of sodium lactate)?
A: ≤ 47%

Q: And the “Interfacial tension as percent of the value at 0.1% sodium lactate” value ([2]; sodium lactate 30%, 0% ethyl lactate, FIG. 6)?
A: 47%

Q: And the “Decrease of interfacial tension” value ([2]; sodium lactate increased from 0.1 to 3%, 0% ethyl lactate, FIG. 6)?
A: about 26%

Q: Which “Emulsion formed in water” value [3] does the source give for oleyl lactyllic acid here?
A: forms a stable microemulsion

Q: With `CCOC(=O)C(C)O` (stereo not drawn) [ethyl lactate] as the compound, how does the “Effect on the solution's surface tension” value ([1]; 1% and 10% ethyl lactate added to sodium lactate solutions) read?
A: pronounced effect

Q: What about the “Tension compared with 30% sodium lactate solution with no ethyl lactate” value ([2]; 10% ethyl lactate mixture with sodium lactate) of the same compound?
A: lower surface tensions than the 30% sodium lactate solution

Q: And the “Dependence of interfacial tension on sodium lactate concentration” value ([2]; ethyl lactate / sodium lactate mixtures, FIG. 6)?
A: relatively insensitive to sodium lactate concentration
